In brackets after ≈: the same amount, converted by molar mass.

Here are results for 20 molecules from patent US20250011300A1, “PIPERAZINYLSULFONYLARYL COMPOUNDS FOR TREATMENT OF BACTERIAL INFECTIONS” (Hoffmann-La Roche Inc., priority 2021, published 2025).

Assay [1] concerns E. coli (ATCC 25922). Nature of the assay: Minimal Inhibitory Concentration (MIC) assay, E. coli. The format is cell-based. The conditions noted are these: Escherichia coli, ATCC25922; E. coli ATCC 25922, CAMHB, 20 hours at 35° C.; read-out: MIC E. coli ATCC 25922. As to the method: (§1) Example 122: Minimal Inhibitory Concentration Protocol (MIC) Assay
(§2) The in vitro potency of compounds to inhibit E. coli (ATCC 25922) and K. pneumonia (ATCC 43816) growth was assessed by MIC (Minimal Inhibitory Concentration) assay. Samples were prepared from 10 mM DMSO stock solutions. After serial 2-fold dilution in DMSO in a master plate (Greiner, Cat No: 651201), 180 μL sterile distilled water was added to 20 μL each aliquot of the samples. Then 10 μL diluted compounds were transferred into a new assay plate (Costar, 3599).
(§3) The growth medium Cation-Adjusted Mueller Hinton Broth (CAMHB) was prepared by adding the 20 mg per liter CaCl2) and 20 mg per liter MgCl2 into the MHB medium (Jianglai Company, sterilized).
(§4) Vials of each of the test microorganisms were maintained frozen in the vapor phase of a liquid nitrogen freezer. The bacteria E. coli ATCC 25922 (KWIKSTIK, 0335K) and K. pneumonia ATCC 43816 were taken out from liquid nitrogen freezer, then thawed in room temperature, and diluted in the CAMHB medium to achieve a final inoculum of 5×10^5 CFU/mL. 90 μL CAMHB with bacteria was dispensed to the assay plate and pipetted 5 times.
(§5) Then the assay plates were incubated for 20 hours at 35° C. in ambient air. Following incubation, the MIC (μg/mL), the lowest concentration of drug that inhibits visible growth of the microorganism was read and recorded throw the microscope.

Assay [2] concerns the target Escherichia coli LpxH (UDP-2,3-diacylglucosamine hydrolase) (Escherichia coli (strain K12), UniProt P43341). Nature of the assay: 50% Inhibitory Concentration (IC50) to LpxH, UMP/CMP-Glo Glycosyltransferase Assay kit. The format is biochemical. As to the method: Example 121: 50% Inhibitory Concentration (IC50) to UDP-2,3-diacylglucosamine hydrolase (LpxH)
The inhibitory potency of molecules to UDP-2,3-diacylglucosamine hydrolase (LpxH) was determined using the UMP/CMP-Glo™ Glycosyltransferase Assay kit. LpxH hydrolyzes the pyrophosphate bond of UDP-2,3-diacylglucosamine (UDP-DAG) to yield 2,3-diacylglucosamine 1-phosphate (lipid X) and UMP. The assay kit could quantify the UMP production by convert the UMP to ATP and generate light in a luciferase reaction. The compound's effect on the LpxH activity is detected by measuring the light using a luminometer (Envision).

Assay [3] relates to K. pneumonia (ATCC 43816). Nature of the assay: Minimal Inhibitory Concentration (MIC) assay, K. pneumonia. The assay is classed as cell-based. Conditions: Klebsiella pneumoniae; K. pneumoniae ATCC43816, CAMHB, 20 hours at 35° C.; read-out: MIC K. pneumoniae ATCC43816. The protocol:
as §1, §2, §3, §4, §5

Chain of Escherichia coli LpxH (UDP-2,3-diacylglucosamine hydrolase) (P43341 whole entry): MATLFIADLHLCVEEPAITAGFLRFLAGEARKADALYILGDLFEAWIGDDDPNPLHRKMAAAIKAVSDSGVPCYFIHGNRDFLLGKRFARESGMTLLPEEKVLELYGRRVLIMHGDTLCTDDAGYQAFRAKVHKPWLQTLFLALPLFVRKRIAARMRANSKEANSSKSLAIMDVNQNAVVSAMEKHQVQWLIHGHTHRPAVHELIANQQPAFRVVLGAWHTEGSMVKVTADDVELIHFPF

As for `O=C1O[C@H]2CNC[C@H]2N1c1ccc(S(=O)(=O)N2CCN(c3cc(C(F)(F)F)cc(Cl)n3)CC2)cc1` [Example 15, (3aR,6aS)-3-[4-[4-[6-chloro-4-(trifluoromethyl)-2-pyridyl]piperazin-1-yl]sulfonylphenyl]-4,5,6,6a-tetrahydro-3aH-pyrrolo[3,4-d]oxazol-2-one], the figures for the MIC in assay [1] and in assay [3] were 1.01 µg/mL (≈ 1.9 µM) and 2.02 µg/mL (≈ 3.8 µM), respectively. Besides, the half-maximal inhibitory concentration (IC50) (usually the midpoint of a concentration-inhibition curve) in assay [2] is 95.9 nM.

On to `N#CC1(c2cc(Cl)nc(N3CCN(S(=O)(=O)c4ccc(N5CC(N)CC5=O)cc4)CC3)c2)CC1` (stereo not drawn) [Example 71, 1-[2-[4-[4-(4-Amino-2-oxo-pyrrolidin-1-yl)phenyl]sulfonylpiperazin-1-yl]-6-chloro-4-pyridyl]cyclopropanecarbonitrile], for which the minimum inhibitory concentration (MIC) in assay [1] and in assay [3] was 12.5 µg/mL (≈ 25 µM) throughout. Half-maximal inhibition in assay [2] (IC50) required 591 nM.

As for `O=C1CC2NCCC2N1c1ccc(S(=O)(=O)N2CCN(c3cc(C(F)(F)F)cc(Cl)n3)CC2)cc1` (stereo not drawn) [Example 20, 4-[4-[4-[6-Chloro-4-(trifluoromethyl)-2-pyridyl]piperazin-1-yl]sulfonylphenyl]-1,2,3,3a,6,6a-hexahydropyrrolo[3,2-b]pyrrol-5-one], the MIC (commonly the smallest concentration in the dilution series that meets the test's criterion for growth inhibition) stood at 1.77 µg/mL (≈ 3.34 µM) in assay [1] and 3.54 µg/mL (≈ 6.68 µM) in assay [3]. In assay [2], this molecule gave an IC50 of 62.3 nM.

As to `O=C1O[C@@H]2CCNC[C@@H]2N1c1ccc(S(=O)(=O)N2CCN(c3cc(C(F)(F)F)cc(Cl)n3)CC2)cc1` [Example 18, (3aS,7aR)-3-[4-[4-[6-chloro-4-(trifluoromethyl)-2-pyridyl]piperazin-1-yl]sulfonylphenyl]-3a,4,5,6,7,7a-hexahydrooxazolo[4,5-c]pyridin-2-one], the MIC in assay [1] and in assay [3] was 0.91 µg/mL (≈ 1.67 µM) each time. Besides, the IC50 in assay [2] was 152 nM.

For `NC1CC(=O)N(c2ccc(S(=O)(=O)N3CCN(c4cc(C(F)(F)c5ccccc5)nc(C5CC5)n4)CC3)cc2)C1` (stereo not drawn) [Example 79, 4-Amino-1-[4-[4-[2-cyclopropyl-6-[difluoro(phenyl)methyl]pyrimidin-4-yl]piperazin-1-yl]sulfonylphenyl]pyrrolidin-2-one], the minimal inhibitory concentration (MIC) is 14.2 µg/mL (≈ 25 µM) in assay [1] and over 28.4 µg/mL in assay [3]. Moreover, the half-maximal inhibitory concentration (IC50) in assay [2] was 179 nM.

Consider `NCC1CN(c2ccc(S(=O)(=O)N3CCN(c4cc(C(F)(F)F)cc(Cl)n4)CC3)cc2F)C(=O)O1` (stereo not drawn) [Example 63, 5-(Aminomethyl)-3-[4-[4-[6-chloro-4-(trifluoromethyl)-2-pyridyl]piperazin-1-yl]sulfonyl-2-fluoro-phenyl]oxazolidin-2-one], for which the minimal inhibitory concentration (MIC) in assay [1] came out at 1.83 µg/mL (≈ 3.4 µM); in assay [3], 7.3 µg/mL (≈ 13.6 µM). The same molecule showed an IC50 in assay [2] of 204 nM.

On to `O=C1CC2(CNC2)CN1c1ccc(S(=O)(=O)N2CCN(c3cc(C(F)(F)F)cc(Cl)n3)CC2)cc1` [Example 12, 6-[4-[4-[6-Chloro-4-(trifluoromethyl)-2-pyridyl]piperazin-1-yl]sulfonylphenyl]-2,6-diazaspiro[3.4]octan-7-one], for which the MIC in assay [1] was found to be 2.01 µg/mL (≈ 3.79 µM); in assay [3], 4.03 µg/mL (≈ 7.6 µM). Moreover, it took 69.8 nM to reach half-maximal inhibition in assay [2] (IC50).

Take `O=C1OC2(CNC2)CN1c1ccc(S(=O)(=O)N2CCN(c3cc(C(F)(F)F)cc(Cl)n3)CC2)cc1` [Example 13]: the MIC in assay [1] was determined as 0.83 µg/mL (≈ 1.56 µM); in assay [3], 2.49 µg/mL (≈ 4.68 µM). For the same molecule, the concentration for half-maximal inhibition (IC50) in assay [2] was 128 nM.

As to `NCC1CN(CC2CN(c3ccc(S(=O)(=O)N4CCN(c5cc(C(F)(F)F)cc(Cl)n5)CC4)cc3)C(=O)O2)C1` (stereo not drawn) [Example 33, 5-[[3-(Aminomethyl)azetidin-1-yl]methyl]-3-[4-[4-[6-chloro-4-(trifluoromethyl)-2-pyridyl]piperazin-1-yl]sulfonylphenyl]oxazolidin-2-one], the MIC came out at 1.1 µg/mL (≈ 1.87 µM) in assay [1] and 2.2 µg/mL (≈ 3.73 µM) in assay [3]. The same molecule gave a concentration for half-maximal inhibition (IC50) in assay [2] of 15.3 nM.

For the molecule `NC1CC(=O)N(c2ccc(S(=O)(=O)N3CCN(c4cc(C(F)(F)C5COC5)cc(Cl)n4)CC3)cc2)C1` (stereo not drawn) [Example 97, 4-Amino-1-[4-[4-[6-chloro-4-[difluoro(oxetan-3-yl)methyl]-2-pyridyl]piperazin-1-yl]sulfonylphenyl]pyrrolidin-2-one], the values for the MIC in assay [1] and in assay [3] were 0.85 µg/mL (≈ 1.57 µM) and 1.27 µg/mL (≈ 2.34 µM), respectively. This molecule had an IC50 in assay [2] of 88.6 nM.

In the case of `CNC1CC(=O)N(c2ccc(S(=O)(=O)N3CCN(c4cc(C(F)(F)F)cc(Cl)n4)CC3)cc2)C1` (stereo not drawn) [Example 44, 1-[4-[4-[6-chloro-4-(trifluoromethyl)-2-pyridyl]piperazin-1-yl]sulfonylphenyl]-4-(methylamino)pyrrolidin-2-one], the MIC in assay [1] was found to be 1.73 µg/mL (≈ 3.34 µM); in assay [3] it was 3.47 µg/mL (≈ 6.7 µM). Also, the IC50 in assay [2] is 197 nM.

Turning to `CNCCN1CCC[C@H]2OC(=O)N(c3ccc(S(=O)(=O)N4CCN(c5cc(C(F)(F)F)cc(Cl)n5)CC4)cc3)[C@H]2C1` [Example 26, (3aS,8aR)-3-[4-[4-[6-chloro-4-(trifluoromethyl)-2-pyridyl]piperazin-1-yl]sulfonylphenyl]-5-[2-(methylamino)ethyl]-3a,4,6,7,8,8a-hexahydrooxazolo[4,5-c]azepin-2-one], the minimum inhibitory concentration (MIC) was determined as 2.64 µg/mL (≈ 4.28 µM) in assay [1] and 5.28 µg/mL (≈ 8.56 µM) in assay [3]. The molecule further showed a concentration for half-maximal inhibition (IC50) in assay [2] of 32.4 nM.

Turning to `N[C@@H]1CC(=O)N(c2ccc(S(=O)(=O)N3CCN(c4cc(C(F)(F)C5C6COCC65)cc(Cl)n4)CC3)cc2)C1` (stereo partly drawn) [Example 101, (4R)-4-amino-1-[4-[4-[6-chloro-4-[difluoro(3-oxabicyclo[3.1.0]hexan-6-yl)methyl]-2-pyridyl]piperazin-1-yl]sulfonylphenyl]pyrrolidin-2-one], the minimum inhibitory concentration (MIC) in assay [1] was 0.44 µg/mL (≈ 0.775 µM); in assay [3] it was 0.89 µg/mL (≈ 1.57 µM). This molecule showed an IC50 in assay [2] of 96.8 nM.

Turning to `O=C1CC2(CCCCN2)CN1c1ccc(S(=O)(=O)N2CCN(c3cc(C(F)(F)F)cc(Cl)n3)CC2)cc1` (stereo not drawn) [Example 10, 2-[4-[4-[6-Chloro-4-(trifluoromethyl)-2-pyridyl]piperazin-1-yl]sulfonylphenyl]-2,6-diazaspiro[4.5]decan-3-one], the MIC stood at 1.05 µg/mL (≈ 1.88 µM) in assay [1] and 4.2 µg/mL (≈ 7.53 µM) in assay [3]. In addition, in assay [2], the IC50 was 19.7 nM.

Take `O=C1CC(NC2CNC2)CN1c1ccc(S(=O)(=O)N2CCN(c3cc(C(F)(F)F)cc(Cl)n3)CC2)cc1` (stereo not drawn) [Example 58, 4-(Azetidin-3-ylamino)-1-[4-[4-[6-chloro-4-(trifluoromethyl)-2-pyridyl]piperazin-1-yl]sulfonylphenyl]pyrrolidin-2-one]: the MIC amounted to 7.44 µg/mL (≈ 13.3 µM) in assay [1] and 14.9 µg/mL (≈ 26.6 µM) in assay [3]. Further, in assay [2], 28.6 nM corresponded to half-maximal inhibition (IC50).

Take `NC1CC(=O)N(c2ccc(S(=O)(=O)N3CCN(c4cc(C(F)(F)C5=CCOCC5)cc(Cl)n4)CC3)cc2)C1` (stereo not drawn) [Example 98, 4-Amino-1-[4-[4-[6-chloro-4-[3,6-dihydro-2H-pyran-4-yl(difluoro)methyl]-2-pyridyl]piperazin-1-yl]sulfonylphenyl]pyrrolidin-2-one]: the MIC in assay [1] and in assay [3] was 0.89 µg/mL (≈ 1.57 µM) each time. The IC50 in assay [2] is 47.5 nM.

As to `CN1CCN(CC2CC(=O)N(c3ccc(S(=O)(=O)N4CCN(c5cc(C(F)(F)F)cc(Cl)n5)CC4)cc3)C2)CC1` (stereo not drawn) [Example 36, 1-[4-[4-[6-Chloro-4-(trifluoromethyl)-2-pyridyl]piperazin-1-yl]sulfonylphenyl]-4-[(4-methylpiperazin-1-yl)methyl]pyrrolidin-2-one], the MIC was found to be 1.88 µg/mL (≈ 3.13 µM) in assay [1] and 3.76 µg/mL (≈ 6.26 µM) in assay [3]. For the same molecule, the IC50 in assay [2] was 26.6 nM.

Take `O=C1OC(CO)CN1c1ccc(S(=O)(=O)N2CCN(c3cc(C(F)(F)[C@@H]4CNCCO4)cc(Cl)n3)CC2)cc1` (stereo partly drawn) [Example 110, 3-[4-[4-[6-Chloro-4-[difluoro-[(2S)-morpholin-2-yl]methyl]-2-pyridyl]piperazin-1-yl]sulfonylphenyl]-5-(hydroxymethyl)oxazolidin-2-one]: the MIC in assay [1] and in assay [3] was 0.99 µg/mL (≈ 1.68 µM) each time. In assay [2], this molecule gave a 50% inhibitory concentration (IC50) of 3.4 nM.

Regarding `O=C1CC(NCCO)CN1c1ccc(S(=O)(=O)N2CCN(c3cc(C(F)(F)F)cc(Cl)n3)CC2)cc1` (stereo not drawn) [Example 46, 1-[4-[4-[6-Chloro-4-(trifluoromethyl)-2-pyridyl]piperazin-1-yl]sulfonylphenyl]-4-(2-hydroxyethylamino)pyrrolidin-2-one], the MIC was 1.83 µg/mL (≈ 3.34 µM) in assay [1] and 3.65 µg/mL (≈ 6.66 µM) in assay [3]. In assay [2], this molecule gave a half-inhibitory concentration (IC50) of 9.12 nM.

`N[C@@H]1CC(=O)N(c2ccc(S(=O)(=O)N3CCN(c4cc(C(F)(F)[C@H]5COCCO5)cc(Cl)n4)CC3)cc2)C1` [Example 103, (4R)-4-amino-1-[4-[4-[6-chloro-4-[[(2R)-1,4-dioxan-2-yl]-difluoro-methyl]-2-pyridyl]piperazin-1-yl]sulfonylphenyl]pyrrolidin-2-one]: the minimal inhibitory concentration (MIC) in assay [1] and in assay [3] was 0.89 µg/mL (≈ 1.56 µM) in each case. The same molecule gave an IC50 in assay [2] of 3.5 nM.
